This note sets out measurements from BindingDB's records for patent US10266550 (The Florida International University Board of Trustees, 2019).

DNA topoisomerase 2-alpha, sequence (P11388 whole entry): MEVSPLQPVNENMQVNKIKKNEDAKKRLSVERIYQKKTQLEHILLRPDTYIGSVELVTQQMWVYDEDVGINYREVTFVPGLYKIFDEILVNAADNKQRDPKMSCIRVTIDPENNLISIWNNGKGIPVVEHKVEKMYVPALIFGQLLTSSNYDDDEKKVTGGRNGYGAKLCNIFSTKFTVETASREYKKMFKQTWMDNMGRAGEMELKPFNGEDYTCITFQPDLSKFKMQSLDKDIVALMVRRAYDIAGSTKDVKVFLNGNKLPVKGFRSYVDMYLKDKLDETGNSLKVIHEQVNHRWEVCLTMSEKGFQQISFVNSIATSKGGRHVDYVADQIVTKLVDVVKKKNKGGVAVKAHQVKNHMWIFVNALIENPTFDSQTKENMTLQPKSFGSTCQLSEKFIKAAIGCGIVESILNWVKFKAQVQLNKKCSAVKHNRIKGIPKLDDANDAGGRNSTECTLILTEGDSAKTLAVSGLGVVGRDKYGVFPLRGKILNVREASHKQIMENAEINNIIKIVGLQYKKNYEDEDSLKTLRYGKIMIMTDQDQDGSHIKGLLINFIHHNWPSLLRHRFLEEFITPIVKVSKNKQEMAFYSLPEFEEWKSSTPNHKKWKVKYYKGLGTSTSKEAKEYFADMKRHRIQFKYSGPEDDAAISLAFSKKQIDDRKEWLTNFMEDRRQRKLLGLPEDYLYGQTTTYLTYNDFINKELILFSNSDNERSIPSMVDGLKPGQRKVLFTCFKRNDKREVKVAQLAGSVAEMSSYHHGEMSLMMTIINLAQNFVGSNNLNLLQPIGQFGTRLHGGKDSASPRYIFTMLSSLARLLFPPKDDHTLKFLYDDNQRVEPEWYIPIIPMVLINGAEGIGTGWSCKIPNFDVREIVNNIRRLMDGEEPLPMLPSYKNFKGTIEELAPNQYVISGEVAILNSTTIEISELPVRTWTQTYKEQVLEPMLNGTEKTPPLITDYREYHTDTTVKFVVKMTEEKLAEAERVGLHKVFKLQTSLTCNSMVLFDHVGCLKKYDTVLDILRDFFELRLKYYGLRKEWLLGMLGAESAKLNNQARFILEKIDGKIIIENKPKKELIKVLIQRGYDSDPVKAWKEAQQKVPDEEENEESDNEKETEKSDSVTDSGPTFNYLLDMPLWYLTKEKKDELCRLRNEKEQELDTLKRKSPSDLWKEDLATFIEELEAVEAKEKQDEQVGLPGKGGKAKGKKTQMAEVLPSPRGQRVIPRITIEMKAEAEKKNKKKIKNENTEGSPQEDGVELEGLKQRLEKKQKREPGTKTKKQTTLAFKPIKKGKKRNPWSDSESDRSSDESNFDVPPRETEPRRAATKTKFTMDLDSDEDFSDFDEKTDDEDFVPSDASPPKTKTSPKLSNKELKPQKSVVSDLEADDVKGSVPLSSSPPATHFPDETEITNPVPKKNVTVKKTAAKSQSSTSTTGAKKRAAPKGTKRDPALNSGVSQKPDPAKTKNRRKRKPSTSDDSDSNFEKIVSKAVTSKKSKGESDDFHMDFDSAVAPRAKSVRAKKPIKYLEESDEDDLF

This test has as its target DNA topoisomerase 2-alpha (Homo sapiens, UniProt P11388). As to the kind of experiment: Human Topoisomerase IIalpha Decatenation Inhibition Assay. Here is the method: The samples were incubated for 15 minutes at 37° C. before the addition of 4 μL of a stop buffer containing 5% sarkosyl, 0.25% bromophenol blue, and 25% glycerol. The reactions were then analyzed by electrophoresis in 1% agarose gels containing […] ethidium bromide before being photographed under UV light.
`CN1CCN(c2c(F)cc3c(=O)c(C(=O)O)cn4c3c2Oc2cc(N)ccc2-4)CC1` [US10266550, Compound 11a] yielded an IC50 of 5850 nM.

With `Nc1ccc2c(c1)Oc1c(N3CCNCC3)c(F)cc3c(=O)c(C(=O)O)cn-2c13` [US10266550, Compound 11b], the IC50 was found to be 2920 nM.

In turn, `N[C@H]1CCN(c2c(F)cc3c(=O)c(C(=O)O)cn4c3c2Oc2cc([N+](=O)[O-])ccc2-4)C1` [US10266550, Compound 16] yielded an IC50 of 2920 nM.

Usually IC50 stands for the concentration needed to halve the response being measured.
